Tests used:
Format in all cases: in vivo, mouse
[1] = test system: breast cancer-derived 4T1 cells; test: Example 1: Balb/c mice inoculated with 4T1 cells, carboplatin combination; conditions: antibody 50 μg iv days 5, 8; carboplatin 114 mg/kg iv day 5; single groups 8, 12, 15, 18, 22 days after inoculation, combined from 8 days; Mann-Whitney U
Procedure: (§1) The back of each Balb/c mouse (6 weeks old, female) was intracutaneously inoculated with 2×10^5 breast cancer-derived 4T1 cells (50 μL).
(§2) To an anti-mouse CCR8 antibody single administration group, 50 μg (200 μL) of an anti-mouse CCR8 antibody (clone SA214G2, BioLegend, Inc.) was intravenously administered 5 and 8 days after tumor inoculation, and saline was intravenously administered at a volume of 11.4 mL/kg body weight 5 days after tumor inoculation (N=10). To a carboplatin single administration group, 50 μg (200 μL) of an isotype control antibody (clone LTF-2, Bio X Cell, Inc.) was intravenously administered 5 and 8 days after tumor inoculation, and carboplatin (trade name: PARAPLATIN, Bristol-Myers Squibb Company) at 114 mg/kg body weight was intravenously administered at a volume of 11.4 mL/kg body weight 5 days after tumor inoculation (N=10). […] Tumor volumes were measured every 3 to 4 days from 5 days after tumor inoculation. The tumor volume (mm^3) was measured in long diameter (mm)×short diameter (mm)×short diameter (mm)/2, and a significant difference test based on a Mann-Whitney U method (significance level: P<0.05) was conducted.

[2] = test system: bladder cancer-derived MB49 cells; test: Example 4: C57BL/6 mice inoculated with MB49 cells, carboplatin or cisplatin combination; conditions: antibody 50 μg iv days 4, 7; carboplatin 40 mg/kg or cisplatin 3 mg/kg iv day 4; single groups 7, 10, 14, 17, 18 days; carboplatin combination from 10 days, cisplatin combination from 14 days; Mann-Whitney U
Procedure: The back of each C57BL/6 mouse (6 weeks old, male) was intracutaneously inoculated with 2×10^5 bladder cancer-derived MB49 cells (50 μL).
To an anti-mouse CCR8 antibody single administration group, 50 μg (200 μL) of an anti-mouse CCR8 antibody (clone SA214G2, BioLegend, Inc.) was intravenously administered 4 and 7 days after tumor inoculation, and saline was intravenously administered at a volume of 10 mL/kg body weight 4 days after tumor inoculation (N=10).
To a carboplatin single administration group, 50 μg (200 uL) of an isotype control antibody (clone LTF-2, Bio X Cell, Inc.) was intravenously administered 4 and 7 days after tumor inoculation, and carboplatin (trade name: PARAPLATIN, Bristol-Myers Squibb Company) at 40 mg/kg body weight was intravenously administered at a volume of 10 mL/kg body weight 4 days after tumor inoculation (N=10). […]
Tumor volumes were measured every 1 to 4 days from 4 days after tumor inoculation. The tumor volume (mm^3) was measured in long diameter (mm)×short diameter (mm)×short diameter (mm)/2, and a significant difference test based on a Mann-Whitney U method (significance level: P<0.05) was conducted. […]

[3] = test system: breast cancer-derived 4T1 cells; test: Example 3: hCCR8-KI (KI/KI) mice inoculated with 4T1 cells, cisplatin combination; conditions: antibody 400 μg iv days 5, 8; cisplatin 8 mg/kg iv day 5; cisplatin single 8, 11, 13, 15, 18, 21, 25, 29 days, combined from 8 days; Mann-Whitney U
Procedure: To an anti-human CCR8 antibody single administration group, 400 μg (200 μL) of an anti-human CCR8 antibody (humanized 10A11 antibody (light chain variable region: IGKV4-1 N53Q+G29R (SEQ ID NO: 59)/heavy chain variable region: IGHV3-15 T94R (SEQ ID NO: 41))) was intravenously administered 5 and 8 days after tumor inoculation, and saline was intravenously administered at a volume of 16 mL/kg body weight 5 days after tumor inoculation (N=10). To a cisplatin single administration group, 200 μL of a control solution (obtained by diluting a buffer solution used for the antibody with saline in line with an antibody dilution ratio) was intravenously administered 5 and 8 days after tumor inoculation, and cisplatin (trade name: RANDA, Nippon Kayaku Co., Ltd.) at 8 mg/kg body weight was intravenously administered at a volume of 16 mL/kg body weight 5 days after tumor inoculation (N=10). […] Tumor volumes were measured every 2 to 4 days from 5 days after tumor inoculation. The tumor volume (mm^3) was measured in long diameter (mm)×short diameter (mm)×short diameter (mm)/2, and a significant difference test based on a Mann-Whitney U method (significance level: P<0.05) was conducted.

[4] = test system: lung cancer-derived ASB-XIV cells; test: Example 7: hCCR8-KI (KI/KI) mice inoculated with ASB-XIV cells, cisplatin combination; conditions: antibody 1 mg/kg iv and cisplatin 3 mg/kg iv day 5; 14, 17 and 19 days after tumor inoculation; Mann-Whitney U
Procedure: To an anti-human CCR8 antibody single administration group, an anti-human CCR8 antibody (humanized 10A11 antibody (light chain variable region: IGKV4-1 N53Q+G29R (SEQ ID NO: 59)/heavy chain variable region: IGHV3-15 T94R (SEQ ID NO: 41))) at 1 mg/10 mL/kg body weight and saline at 10 mL/kg body weight were intravenously administered 5 days after tumor inoculation (N=10). To a cisplatin single administration group, a control solution at 10 mL/kg body weight and cisplatin (trade name: RANDA, Nippon Kayaku Co., Ltd.) at 3 mg/10 mL/kg body weight were intravenously administered 5 days after tumor inoculation (N=10). To an anti-human CCR8 antibody and cisplatin combined administration group, an anti-human CCR8 antibody at 1 mg/10 mL/kg body weight and cisplatin at 3 mg/10 mL/kg body weight were intravenously administered 5 days after tumor inoculation (N=10). To a control group, a control solution at 10 mL/kg body weight and saline at 10 mL/kg body weight were intravenously administered 5 days after tumor inoculation (N=10). Tumor volumes were measured every 2 to 5 days from 5 days after tumor inoculation. The tumor volume (mm^3) was measured in long diameter (mm)×short diameter (mm)×short diameter (mm)/2, and a significant difference test based on a Mann-Whitney U method (significance level: P<0.05) was conducted.

[5] = test system: breast cancer-derived 4T1 cells; test: Example 2: Balb/c mice inoculated with 4T1 cells, gemcitabine combination; conditions: antibody 50 μg iv days 5, 8; gemcitabine 50 mg/kg iv day 5; gemcitabine single 8, 12, 15, 18, 22 days, combined from 8 days; Mann-Whitney U
Procedure: as §1
as §2, with “10” for “11.4”, “gemcitabine” for “carboplatin”, “GEMZAR, Eli Lilly Inc.)” for “PARAPLATIN, Bristol-Myers Squibb Company)”, “50” for “114”

[6] = test system: lung cancer-derived ASB-XIV cells; test: Example 8: hCCR8-KI (KI/KI) mice inoculated with ASB-XIV cells, paclitaxel combination
Procedure: To an anti-human CCR8 antibody single administration group, an anti-human CCR8 antibody (humanized 10A11 antibody (light chain variable region: IGKV4-1 N53Q+G29R (SEQ ID NO: 59)/heavy chain variable region: IGHV3-15 T94R (SEQ ID NO: 41))) at 0.5 mg/10 mL/kg body weight and saline at 10 mL/kg body weight were intravenously administered 5 days after tumor inoculation (N=10). To a paclitaxel single administration group, saline at 10 mL/kg body weight and paclitaxel (trade name: TAXOL, Bristol-Myers Squibb Company) at 8 mg/10 mL/kg body weight were intravenously administered 5 days after tumor inoculation (N=10). To an anti-human CCR8 antibody and paclitaxel combined administration group, an anti-human CCR8 antibody at 0.5 mg/10 mL/kg body weight and paclitaxel at 8 mg/10 mL/kg body weight were intravenously administered 5 days after tumor inoculation (N=10). To a control group, saline was intravenously administered at 20 mL/kg 5 days after tumor inoculation (N=10). Tumor volumes were measured every 2 to 5 days from 5 days after tumor inoculation. The tumor volume (mm^3) was measured in long diameter (mm)×short diameter (mm)×short diameter (mm)/2, and a significant difference test based on a Student's T: one-sided test method (significance level: P<0.05) was conducted.

`N.N.O=C([O-])C1(C(=O)[O-])CCC1.[Pt+2]` [carboplatin] was tested, and the “tumor volume as compared to the control group” value [1] was “no significant difference” and the “tumor volume as compared to the control group” value [2] was “no significant difference”.
For `N.N.[Cl][Pt][Cl]` [cisplatin, reference compound], the “tumor volume as compared to the control group” value [3] was “significant decrease”, the “tumor volume as compared to the control group” value [4] was “no significant decrease” and the “tumor volume as compared to the control group” value [2] was “no significant difference”.
For `Nc1ccn([C@@H]2O[C@H](CO)[C@@H](O)C2(F)F)c(=O)n1` [gemcitabine], the “tumor volume as compared to the control group” value [5] was “significant decrease”.
With `CC(=O)O[C@H]1C(=O)[C@@]2(C)[C@H]([C@H](OC(=O)c3ccccc3)[C@]3(O)C[C@H](OC(=O)[C@H](O)[C@@H](NC(=O)c4ccccc4)c4ccccc4)C(C)=C1C3(C)C)[C@]1(OC(C)=O)CO[C@@H]1C[C@@H]2O` [paclitaxel] the “tumor volume as compared to the control group” value ([6]; antibody 0.5 mg/kg iv and paclitaxel 8 mg/kg iv day 5, antibody single 10, 12, 14, 18 days, paclitaxel single 10 and 12 days, combined from 10 days, Student's T one-sided) was “significant decrease” and the “tumor volume as compared to the control group, later time points” value ([6]; paclitaxel 8 mg/kg iv day 5, 14 and 17 days after tumor inoculation) was “the significant difference disappeared”.

Reference: patent US20230256092A1, “COMBINED USE OF ANTI-CCR8 ANTIBODY AND CHEMOTHERAPEUTIC AGENT” (Shionogi & Co., Ltd., priority 2020, published 2023)
